{"source": "patent US8192962B2", "about": "“Processes for detecting toxic substances” (Daikin Industries, Ltd., priority 2001, dated 2012)", "tested_on": "Unknown protein yeast genes", "test": "DNA chip mRNA expression in yeast, unknown protein yeast genes (Table 1)", "type": "cell-based, Saccharomyces cerevisiae S288C", "method_in_brief": "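Expression change after 2 h toxicant exposure (growth-inhibiting, sub-lethal) of log-phase S. cerevisiae S288C at 25° C. Oligo-dT-purified mRNA was labeled with Cy3-dUTP or Cy5-dUTP and hybridized >12 h at 65° C. to a genome-wide chip; ratio of scanned fluorescence to control.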", "data": [{"smiles": "N#Cc1c(Cl)c(Cl)c(Cl)c(C#N)c1Cl", "note": "[(9), 2,4,5,6-tetrachloro-1,3-benzenedicarbonitrile]", "values": [{"measurement": "The level of expressed mRNA in the presence of chemical substance/The level of expressed mRNA in the absence of chemical substance", "setting": "yeast gene YKL195W, incubated two hours with chemical substance", "result": 3.6}, {"measurement": "The level of expressed mRNA in the presence of chemical substance/The level of expressed mRNA in the absence of chemical substance", "setting": "yeast gene YKR018C", "result": 3.9}, {"measurement": "The level of expressed mRNA in the presence of chemical substance/The level of expressed mRNA in the absence of chemical substance", "setting": "yeast gene YKR046C", "result": 3.9}, {"measurement": "The level of expressed mRNA in the presence of chemical substance/The level of expressed mRNA in the absence of chemical substance", "setting": "yeast gene YKR091W, incubated two hours with chemical substance", "result": 1.0}, {"measurement": "The level of expressed mRNA in the presence of chemical substance/The level of expressed mRNA in the absence of chemical substance", "setting": "yeast gene YLR054C, incubated two hours with chemical substance", "result": 2.7}, {"measurement": "The level of expressed mRNA in the presence of chemical substance/The level of expressed mRNA in the absence of chemical substance", "setting": "yeast gene YLR149C, incubated two hours with chemical substance", "result": 6.2}, {"measurement": "The level of expressed mRNA in the presence of chemical substance/The level of expressed mRNA in the absence of chemical substance", "setting": "yeast gene YLR152C, incubated two hours with chemical substance", "result": 0.6}, {"measurement": "The level of expressed mRNA in the presence of chemical substance/The level of expressed mRNA in the absence of chemical substance", "setting": "yeast gene YLR161W", "result": 1.0}, {"measurement": "The level of expressed mRNA in the presence of chemical substance/The level of expressed mRNA in the absence of chemical substance", "setting": "yeast gene YLR177W", "result": 1.0}, {"measurement": "The level of expressed mRNA in the presence of chemical substance/The level of expressed mRNA in the absence of chemical substance", "setting": "yeast gene YLR194C, incubated two hours with chemical substance", "result": 0.9}, {"measurement": "The level of expressed mRNA in the presence of chemical substance/The level of expressed mRNA in the absence of chemical substance", "setting": "yeast gene YLR324W, incubated two hours with chemical substance", "result": 3.1}, {"measurement": "The level of expressed mRNA in the presence of chemical substance/The level of expressed mRNA in the absence of chemical substance", "setting": "yeast gene YLR338W", "result": 7.9}, {"measurement": "The level of expressed mRNA in the presence of chemical substance/The level of expressed mRNA in the absence of chemical substance", "setting": "yeast gene YLR346C", "result": 8.6}, {"measurement": "The level of expressed mRNA in the presence of chemical substance/The level of expressed mRNA in the absence of chemical substance", "setting": "yeast gene YLR350W, incubated two hours with chemical substance", "result": 0.6}, {"measurement": "The level of expressed mRNA in the presence of chemical substance/The level of expressed mRNA in the absence of chemical substance", "setting": "yeast gene YLR387C, incubated two hours with chemical substance", "result": 7.8}, {"measurement": "The level of expressed mRNA in the presence of chemical substance/The level of expressed mRNA in the absence of chemical substance", "setting": "yeast gene YLR460C", "result": 13.9}, {"measurement": "The level of expressed mRNA in the presence of chemical substance/The level of expressed mRNA in the absence of chemical substance", "setting": "yeast gene YML117W, incubated two hours with chemical substance", "result": 1.0}, {"measurement": "The level of expressed mRNA in the presence of chemical substance/The level of expressed mRNA in the absence of chemical substance", "setting": "yeast gene YMR009W, incubated two hours with chemical substance", "result": 3.4}, {"measurement": "The level of expressed mRNA in the presence of chemical substance/The level of expressed mRNA in the absence of chemical substance", "setting": "yeast gene YMR067C, incubated two hours with chemical substance", "result": 4.0}, {"measurement": "The level of expressed mRNA in the presence of chemical substance/The level of expressed mRNA in the absence of chemical substance", "setting": "yeast gene YMR090W", "result": 16.7}, {"measurement": "The level of expressed mRNA in the presence of chemical substance/The level of expressed mRNA in the absence of chemical substance", "setting": "yeast gene YMR097C, incubated two hours with chemical substance", "result": 2.1}, {"measurement": "The level of expressed mRNA in the presence of chemical substance/The level of expressed mRNA in the absence of chemical substance", "setting": "yeast gene YMR102C, incubated two hours with chemical substance", "result": 1.7}, {"measurement": "The level of expressed mRNA in the presence of chemical substance/The level of expressed mRNA in the absence of chemical substance", "setting": "yeast gene YMR107W, incubated two hours with chemical substance", "result": 6.0}, {"measurement": "The level of expressed mRNA in the presence of chemical substance/The level of expressed mRNA in the absence of chemical substance", "setting": "yeast gene YMR180C, incubated two hours with chemical substance", "result": 1.8}, {"measurement": "The level of expressed mRNA in the presence of chemical substance/The level of expressed mRNA in the absence of chemical substance", "setting": "yeast gene YMR184W, incubated two hours with chemical substance", "result": 2.1}, {"measurement": "The level of expressed mRNA in the presence of chemical substance/The level of expressed mRNA in the absence of chemical substance", "setting": "yeast gene YMR191W, incubated two hours with chemical substance", "result": 2.2}, {"measurement": "The level of expressed mRNA in the presence of chemical substance/The level of expressed mRNA in the absence of chemical substance", "setting": "yeast gene YMR251W", "result": 3.1}, {"measurement": "The level of expressed mRNA in the presence of chemical substance/The level of expressed mRNA in the absence of chemical substance", "setting": "yeast gene YMR295C, incubated two hours with chemical substance", "result": 1.0}, {"measurement": "The level of expressed mRNA in the presence of chemical substance/The level of expressed mRNA in the absence of chemical substance", "setting": "yeast gene YMR316W, incubated two hours with chemical substance", "result": 2.1}, {"measurement": "The level of expressed mRNA in the presence of chemical substance/The level of expressed mRNA in the absence of chemical substance", "setting": "yeast gene YNL044W, incubated two hours with chemical substance", "result": 0.8}, {"measurement": "The level of expressed mRNA in the presence of chemical substance/The level of expressed mRNA in the absence of chemical substance", "setting": "yeast gene YNL074C, incubated two hours with chemical substance", "result": 1.5}, {"measurement": "The level of expressed mRNA in the presence of chemical substance/The level of expressed mRNA in the absence of chemical substance", "setting": "yeast gene YNL092W, incubated two hours with chemical substance", "result": 2.3}, {"measurement": "The level of expressed mRNA in the presence of chemical substance/The level of expressed mRNA in the absence of chemical substance", "setting": "yeast gene YNL115C, incubated two hours with chemical substance", "result": 2.6}, {"measurement": "The level of expressed mRNA in the presence of chemical substance/The level of expressed mRNA in the absence of chemical substance", "setting": "yeast gene YNL156C, incubated two hours with chemical substance", "result": 2.4}, {"measurement": "The level of expressed mRNA in the presence of chemical substance/The level of expressed mRNA in the absence of chemical substance", "setting": "yeast gene YNL234W, incubated two hours with chemical substance", "result": 2.6}, {"measurement": "The level of expressed mRNA in the presence of chemical substance/The level of expressed mRNA in the absence of chemical substance", "setting": "yeast gene YNL281W, incubated two hours with chemical substance", "result": 2.8}, {"measurement": "The level of expressed mRNA in the presence of chemical substance/The level of expressed mRNA in the absence of chemical substance", "setting": "yeast gene YNL305C, incubated two hours with chemical substance", "result": 2.9}, {"measurement": "The level of expressed mRNA in the presence of chemical substance/The level of expressed mRNA in the absence of chemical substance", "setting": "yeast gene YNR068C, incubated two hours with chemical substance", "result": 6.7}, {"measurement": "The level of expressed mRNA in the presence of chemical substance/The level of expressed mRNA in the absence of chemical substance", "setting": "yeast gene YOL032W, incubated two hours with chemical substance", "result": 4.5}, {"measurement": "The level of expressed mRNA in the presence of chemical substance/The level of expressed mRNA in the absence of chemical substance", "setting": "yeast gene YOL036W, incubated two hours with chemical substance", "result": 3.1}, {"measurement": "The level of expressed mRNA in the presence of chemical substance/The level of expressed mRNA in the absence of chemical substance", "setting": "yeast gene YOL047C, incubated two hours with chemical substance", "result": 0.6}, {"measurement": "The level of expressed mRNA in the presence of chemical substance/The level of expressed mRNA in the absence of chemical substance", "setting": "yeast gene YOL071W, incubated two hours with chemical substance", "result": 4.4}, {"measurement": "The level of expressed mRNA in the presence of chemical substance/The level of expressed mRNA in the absence of chemical substance", "setting": "yeast gene YOL082W, incubated two hours with chemical substance", "result": 3.4}, {"measurement": "The level of expressed mRNA in the presence of chemical substance/The level of expressed mRNA in the absence of chemical substance", "setting": "yeast gene YOL083W, incubated two hours with chemical substance", "result": 2.7}, {"measurement": "The level of expressed mRNA in the presence of chemical substance/The level of expressed mRNA in the absence of chemical substance", "setting": "yeast gene YOL117W, incubated two hours with chemical substance", "result": 1.3}, {"measurement": "The level of expressed mRNA in the presence of chemical substance/The level of expressed mRNA in the absence of chemical substance", "setting": "yeast gene YOL131W, incubated two hours with chemical substance", "result": 8.4}, {"measurement": "The level of expressed mRNA in the presence of chemical substance/The level of expressed mRNA in the absence of chemical substance", "setting": "yeast gene YOL150C", "result": 10.8}, {"measurement": "The level of expressed mRNA in the presence of chemical substance/The level of expressed mRNA in the absence of chemical substance", "setting": "yeast gene YOL162W, incubated two hours with chemical substance", "result": 12.0}, {"measurement": "The level of expressed mRNA in the presence of chemical substance/The level of expressed mRNA in the absence of chemical substance", "setting": "yeast gene YOR019W, incubated two hours with chemical substance", "result": 3.5}, {"measurement": "The level of expressed mRNA in the presence of chemical substance/The level of expressed mRNA in the absence of chemical substance", "setting": "yeast gene YOR161C", "result": 1.0}, {"measurement": "The level of expressed mRNA in the presence of chemical substance/The level of expressed mRNA in the absence of chemical substance", "setting": "yeast gene YOR197W, incubated two hours with chemical substance", "result": 0.8}, {"measurement": "The level of expressed mRNA in the presence of chemical substance/The level of expressed mRNA in the absence of chemical substance", "setting": "yeast gene YPL087W, incubated two hours with chemical substance", "result": 1.0}, {"measurement": "The level of expressed mRNA in the presence of chemical substance/The level of expressed mRNA in the absence of chemical substance", "setting": "yeast gene YPL150W", "result": 3.1}, {"measurement": "The level of expressed mRNA in the presence of chemical substance/The level of expressed mRNA in the absence of chemical substance", "setting": "yeast gene YPL196W, incubated two hours with chemical substance", "result": 10.9}, {"measurement": "The level of expressed mRNA in the presence of chemical substance/The level of expressed mRNA in the absence of chemical substance", "setting": "yeast gene YPL206C, incubated two hours with chemical substance", "result": 1.7}, {"measurement": "The level of expressed mRNA in the presence of chemical substance/The level of expressed mRNA in the absence of chemical substance", "setting": "yeast gene YPL222W, incubated two hours with chemical substance", "result": 7.4}, {"measurement": "The level of expressed mRNA in the presence of chemical substance/The level of expressed mRNA in the absence of chemical substance", "setting": "yeast gene YPL225W", "result": 1.0}, {"measurement": "The level of expressed mRNA in the presence of chemical substance/The level of expressed mRNA in the absence of chemical substance", "setting": "yeast gene YPR023C, incubated two hours with chemical substance", "result": 4.4}, {"measurement": "The level of expressed mRNA in the presence of chemical substance/The level of expressed mRNA in the absence of chemical substance", "setting": "yeast gene YPR151C, incubated two hours with chemical substance", "result": 3.0}]}]}
